# The supplement of paper PMC4862054
# What was measured:
# Conditions in all cases: incubation time: 72 h
# BT-474 [1] = test: normalised response (% of control), CellTox Green; higher = less cell death (100 = DMSO, 0 = benzethonium chloride kill control)
# Method in brief: (§1)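 In 384-well plates holding compound at 5 concentrations in 10-fold steps over a 10,000-fold range specific to each compound, breast cancer cell lines were seeded as 20 µl suspension and incubated 72 h. CellTox Green fluorescence was measured at 485/520 nm, after which CellTiter-Glo luminescence was measured following 10 min at room temperature. Plate signals were normalised to 0.1 % DMSO (100) and a positive kill control (0), and each value is the normalised signal at a single concentration.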
# BT-549 [2] = test: as above
# Method in brief: as §1
# CAL-120 [3] = test: as above
# Method in brief: as §1
# CAL-148 [4] = test: as above
# Method in brief: as §1
# CAL-51 [5] = test: as above
# Method in brief: as §1
# CAL-85-1 [6] = test: as above
# Method in brief: as §1
# DU-4475 [7] = test: as above
# Method in brief: as §1
# HCC1143 [8] = test: as above
# Method in brief: as §1
# HCC1599 [9] = test: as above
# Method in brief: as §1
# HCC1937 [10] = test: as above
# Method in brief: as §1
# HDQ-P1 [11] = test: as above
# Method in brief: as §1
# MCF-10A [12] = test: as above
# Method in brief: as §1
# MDA-MB-231 [13] = test: as above
# Method in brief: as §1
# MDA-MB-436 [14] = test: as above
# Method in brief: as §1
# MDA-MB-453 [15] = test: as above
# Method in brief: as §1
# MDA-MB-468 [16] = test: as above
# Method in brief: as §1
# MFM-223 [17] = test: as above
# Method in brief: as §1
# BT-474 [18] = test: normalised response (% of control), CellTiter-Glo; higher = more viable cells (100 = DMSO, 0 = benzethonium chloride kill control)
# Method in brief: as §1
# BT-549 [19] = test: as above
# Method in brief: as §1
# CAL-120 [20] = test: as above
# Method in brief: as §1
# CAL-148 [21] = test: as above
# Method in brief: as §1
# CAL-51 [22] = test: as above
# Method in brief: as §1
# CAL-85-1 [23] = test: as above
# Method in brief: as §1
# DU-4475 [24] = test: as above
# Method in brief: as §1
# HCC1143 [25] = test: as above
# Method in brief: as §1
# HCC1599 [26] = test: as above
# Method in brief: as §1
# HCC1937 [27] = test: as above
# Method in brief: as §1
# HDQ-P1 [28] = test: as above
# Method in brief: as §1
# Hs578T [29] = test: as above
# Method in brief: as §1
# MCF-10A [30] = test: as above
# Method in brief: as §1
# MDA-MB-231 [31] = test: as above
# Method in brief: as §1
# MDA-MB-436 [32] = test: as above
# Method in brief: as §1
# MDA-MB-453 [33] = test: as above
# Method in brief: as §1
# MDA-MB-468 [34] = test: as above
# Method in brief: as §1
# MFM-223 [35] = test: as above
# Method in brief: as §1
# SK-BR-3 = test: as above
# Method in brief: as §1
# Hs578T [36] = test: normalised response (% of control), CellTox Green; higher = less cell death (100 = DMSO, 0 = benzethonium chloride kill control)
# Method in brief: as §1
structure (smiles),measurement,setting,value
C[C@@H](Oc1cc(-c2cnn(C3CCNCC3)c2)cnc1N)c1c(Cl)ccc(F)c1Cl [Crizotinib] (100 nM),normalised response,BT-474 [1],104%
same,normalised response,BT-549 [2],140%
same,normalised response,CAL-120 [3],104%
same,normalised response,CAL-148 [4],106%
same,normalised response,CAL-51 [5],111%
same,normalised response,CAL-85-1 [6],93.4%
same,normalised response,DU-4475 [7],105%
same,normalised response,HCC1143 [8],114%
same,normalised response,HCC1599 [9],104%
same,normalised response,HCC1937 [10],79.2%
same,normalised response,HDQ-P1 [11],95.8%
same,normalised response,MCF-10A [12],105%
same,normalised response,MDA-MB-231 [13],123%
same,normalised response,MDA-MB-436 [14],80.2%
same,normalised response,MDA-MB-453 [15],90.9%
same,normalised response,MDA-MB-468 [16],122%
same,normalised response,MFM-223 [17],99.2%
same,normalised response,BT-474 [18],102%
same,normalised response,BT-549 [19],90.4%
same,normalised response,CAL-120 [20],100%
same,normalised response,CAL-148 [21],95.6%
same,normalised response,CAL-51 [22],104%
same,normalised response,CAL-85-1 [23],116%
same,normalised response,DU-4475 [24],99.2%
same,normalised response,HCC1143 [25],100%
same,normalised response,HCC1599 [26],114%
same,normalised response,HCC1937 [27],98.5%
same,normalised response,HDQ-P1 [28],98.8%
same,normalised response,Hs578T [29],99.7%
same,normalised response,MCF-10A [30],107%
same,normalised response,MDA-MB-231 [31],98.6%
same,normalised response,MDA-MB-436 [32],102%
same,normalised response,MDA-MB-453 [33],91.7%
same,normalised response,MDA-MB-468 [34],96.1%
same,normalised response,MFM-223 [35],97.1%
same,normalised response,SK-BR-3,92.4%
CC(=O)Nc1ccc(C(=O)Nc2ccccc2N)cc1 [Tacedinaline] (100 nM),normalised response,BT-474 [1],99.1%
same,normalised response,BT-549 [2],117%
same,normalised response,CAL-120 [3],101%
same,normalised response,CAL-148 [4],105%
same,normalised response,CAL-51 [5],103%
same,normalised response,CAL-85-1 [6],107%
same,normalised response,DU-4475 [7],99.2%
same,normalised response,HCC1143 [8],110%
same,normalised response,HCC1599 [9],97.4%
same,normalised response,HCC1937 [10],115%
same,normalised response,HDQ-P1 [11],76.9%
same,normalised response,Hs578T [36],92.4%
same,normalised response,MDA-MB-231 [13],108%
same,normalised response,MDA-MB-436 [14],110%
same,normalised response,MDA-MB-453 [15],105%
same,normalised response,MFM-223 [17],101%
same,normalised response,BT-474 [18],105%
same,normalised response,BT-549 [19],106%
same,normalised response,CAL-120 [20],99.2%
same,normalised response,CAL-148 [21],97.2%
same,normalised response,CAL-51 [22],114%
same,normalised response,CAL-85-1 [23],101%
same,normalised response,DU-4475 [24],93.6%
same,normalised response,HCC1143 [25],97.1%
same,normalised response,HCC1599 [26],126%
same,normalised response,HCC1937 [27],102%
same,normalised response,HDQ-P1 [28],100%
same,normalised response,Hs578T [29],98.4%
same,normalised response,MCF-10A [30],93.7%
same,normalised response,MDA-MB-231 [31],102%
same,normalised response,MDA-MB-436 [32],102%
same,normalised response,MDA-MB-453 [33],102%
same,normalised response,MDA-MB-468 [34],109%
same,normalised response,MFM-223 [35],106%
same,normalised response,SK-BR-3,95.4%
Cc1ccc(C(=O)N(CCCN)[C@@H](c2oc3cc(Cl)ccc3c(=O)c2Cc2ccccc2)C(C)C)cc1 (10 nM),normalised response,BT-474 [1],89.8%
same,normalised response,BT-549 [2],88%
same,normalised response,CAL-120 [3],95.5%
same,normalised response,CAL-148 [4],90.8%
same,normalised response,CAL-51 [5],108%
same,normalised response,CAL-85-1 [6],108%
same,normalised response,DU-4475 [7],104%
same,normalised response,HCC1143 [8],112%
same,normalised response,HCC1599 [9],91.8%
same,normalised response,HDQ-P1 [11],85.7%
same,normalised response,Hs578T [36],103%
same,normalised response,MCF-10A [12],112%
same,normalised response,MDA-MB-231 [13],94.4%
same,normalised response,MDA-MB-436 [14],100%
same,normalised response,MDA-MB-453 [15],102%
same,normalised response,MDA-MB-468 [16],111%
same,normalised response,MFM-223 [17],101%
same,normalised response,BT-474 [18],97.9%
same,normalised response,BT-549 [19],100%
same,normalised response,CAL-120 [20],102%
same,normalised response,CAL-148 [21],91.3%
same,normalised response,CAL-51 [22],120%
same,normalised response,CAL-85-1 [23],101%
same,normalised response,DU-4475 [24],96.5%
same,normalised response,HCC1143 [25],97.1%
same,normalised response,HCC1599 [26],100%
same,normalised response,HCC1937 [27],101%
same,normalised response,HDQ-P1 [28],103%
same,normalised response,Hs578T [29],97.5%
same,normalised response,MCF-10A [30],103%
same,normalised response,MDA-MB-231 [31],98.8%
same,normalised response,MDA-MB-436 [32],107%
same,normalised response,MDA-MB-453 [33],94.8%
same,normalised response,MDA-MB-468 [34],90.7%
same,normalised response,MFM-223 [35],90.2%
same,normalised response,SK-BR-3,92.5%
CCC(C)(C)C(=O)O[C@H]1C[C@@H](C)C=C2C=C[C@H](C)[C@H](CC[C@@H]3C[C@@H](O)CC(=O)O3)[C@H]21 [Simvastatin] (1000 nM),normalised response,BT-474 [1],94.2%
same,normalised response,BT-549 [2],94.5%
same,normalised response,CAL-120 [3],102%
same,normalised response,CAL-148 [4],102%
same,normalised response,CAL-51 [5],111%
same,normalised response,CAL-85-1 [6],97.2%
same,normalised response,HCC1143 [8],115%
same,normalised response,HCC1599 [9],95.7%
same,normalised response,HCC1937 [10],78.2%
same,normalised response,HDQ-P1 [11],81.5%
same,normalised response,Hs578T [36],77.5%
same,normalised response,MCF-10A [12],93.2%
same,normalised response,MDA-MB-231 [13],86.9%
same,normalised response,MDA-MB-436 [14],106%
same,normalised response,MDA-MB-453 [15],106%
same,normalised response,MFM-223 [17],100%
same,normalised response,BT-474 [18],75%
same,normalised response,BT-549 [19],93.6%
same,normalised response,CAL-120 [20],96.7%
same,normalised response,CAL-148 [21],104%
same,normalised response,CAL-51 [22],109%
same,normalised response,CAL-85-1 [23],96.6%
same,normalised response,HCC1143 [25],96.3%
same,normalised response,HCC1599 [26],102%
same,normalised response,HCC1937 [27],98.4%
same,normalised response,HDQ-P1 [28],92.6%
same,normalised response,Hs578T [29],92.9%
same,normalised response,MCF-10A [30],111%
same,normalised response,MDA-MB-231 [31],81.6%
same,normalised response,MDA-MB-436 [32],98.9%
same,normalised response,MDA-MB-453 [33],102%
same,normalised response,MFM-223 [35],98.9%
same,normalised response,SK-BR-3,106%
